Reference: patent publication US20160129021A1, “STERILIZATION METHOD” (UNIVERSITY OF PITTSBURGH - OF THE COMMONWEALTH SYSTEM OF …, priority 2013, published 2016)

Assays:
[1] = system: spermatogenesis in adult mice; assay: ip injection into adult mice, testis sections stained with PAS-H; assay type: in vivo, mouse; conditions: 15 days later
Description: FIG. 7A-F. Inhibition of SHP2 blocks GDNF and FGF signaling causes SSCs to detach from their niche decreases the number of SSCs in culture and disrupts spermatogenesis in vivo. […] Western blot analysis of p-ERK and ERK levels after the treatments is shown. […] The percentage of cells detached from feeder cells was determined (n=3, *=p<0.05). C) The epididymis of control and GCSHP2KO mice were stained with periodic acid Schiffs-hematoxylin. Immature germ cells in GCSHP2KO epididymis are identified with arrows. D) GS cells treated with vehicle or NSC (50 μM) as in B were isolated from feeder cells, dispersed and counted. E) Clumps of GS cells (white arrows) and feeder cells (yellow arrows) treated as in D were assayed for live (green) and dead (red) cells. […] Furthermore, the populations of spermatocytes and spermatids were reduced.

spleen tissue = assay: Spleen tissue after injection into testes; assay type: in vivo, mouse; conditions: same animal as FIG. 11 (10 mg/kg into testes), 15 days after injection
[2] = system: spermatogenesis in testes of adult mice; assay: One injection into the testes of adult mice, sperm production; assay type: in vivo, mouse
GS cells [3] = assay: GS cell number after isolation from feeder cells, dispersed and counted; assay type: cell-based, mouse; conditions: 50 μM, 5 day treatment, vs vehicle
Description: (§1) FIG. 7A-F. Inhibition of SHP2 blocks GDNF and FGF signaling causes SSCs to detach from their niche decreases the number of SSCs in culture and disrupts spermatogenesis in vivo. […] Western blot analysis of p-ERK and ERK levels after the treatments is shown. […] The percentage of cells detached from feeder cells was determined (n=3, *=p<0.05). C) The epididymis of control and GCSHP2KO mice were stained with periodic acid Schiffs-hematoxylin. Immature germ cells in GCSHP2KO epididymis are identified with arrows. D) GS cells treated with vehicle or NSC (50 μM) as in B were isolated from feeder cells, dispersed and counted. E) Clumps of GS cells (white arrows) and feeder cells (yellow arrows) treated as in D were assayed for live (green) and dead (red) cells.
All immunostained cells and tubules from an entire testis section were counted and the number of stained cells per tubule was determined. GS cell viability was determined using the LIVE/DEAD Viability Assay kit for mammalian cells (Life Technologies)
(§2) Preparation of GS cell cultures from 6-day-old DBA/2 mice was performed as described previously (Oatley and Brinster, 2006). Briefly, a testicular cell suspension was isolated by enzymatic digestion with DNase and trypsin and filtered through a 40 uM mesh to remove cell clumps. Germ cells were then enriched from these suspensions through a 30% percoll gradient. […]

[4] = system: FGF and GDNF-mediated phosphorylation of ERK; assay: FGF/GDNF-stimulated ERK phosphorylation in GS cell cultures (western blot); assay type: cell-based, mouse; conditions: FGF 20 ng/ml or GDNF 20 ng/ml, pretreatment with 50 μM
Description: as §1
Isolation of THY1+ germ cells from 6-day-old DBA/2 mice was performed as described previously to produce GS cell cultures (Oatley and Brinster, 2006) (more details in Supplemental Experimental Procedures). […] SSCs were detached from feeders and FGF or GDNF were added for 10 min. Detached SSCs were then pelleted (600×g, 7 min) and the pellets were lysed in Laemmli sample buffer.
WCE boiled in Laemmli sample buffer were fractionated by 10% SDS-PAGE and transferred to Immobilon-P, PVDF membranes 90 (Millipore Corp., Bedford, Mass.). […]

GS cells [5] = assay: Detachment of GS cells from feeder cells; assay type: cell-based, mouse; conditions: 50 μM, 5 days, vs vehicle
Description: as §1
as §2, with “gradient. The germ cell suspensions were subjected to magnetic activated cell sorting (MACS) to select Thy1+ cells to enrich for SSCs.” for “gradient.”

[6] = 5 mg/kg ip daily for 3 or 7 days

For `O=S(=O)(O)c1ccc2cc(/N=N/c3cc(S(=O)(=O)O)c4cccnc4c3O)ccc2c1` [NSC-87877, 8-Hydroxy-7-[(6-sulfo-2-naphthyl)azo]-5-quinolinesulfonic acid], the “further disruption of spermatogenesis (elongated spermatids)” value [1, 6] was “mis-localization and mis-orientation of elongated spermatids”, the “populations of spermatocytes and spermatids” value [1, 6] was “reduced” and the “spermatogonia in tubules at the periphery of the testes” value [1, 6] was “absence of spermatogonia”. For the same compound, the “germ cells in some tubule cross sections” value ([1]; 5 mg/kg ip daily for 7 days) was “nearly all germ cells were absent”, the “damage of spleen tissue” value (spleen tissue) was “not damaged” and the “sperm production, long term” value ([2]; one injection of 10 mg/kg into the testes, adult mice, 70 days) was “loss of sperm production in some regions of the testes”. The “spermatogenesis (sperm production)” value ([2]; one injection of 40 mg/kg into the testes, adult mice, 15 days later) was “sufficient to disrupt spermatogenesis”, the fertility ([2]; single dose of 10 mg/kg or 40 mg/kg, mouse) was “effective in decreasing fertility” and the “reduction of the number of GS cells” value (GS cells [3]) was 22%. For the same compound, the “FGF and GDNF-mediated phosphorylation (activation) of ERK” value [4] was “decreased FGF and GDNF mediated activation of ERK”, the “FGF and GDNF-mediated phosphorylation (activation) of ERK” value ([4]; listed as NSC-878777) was “inhibited the FGF and GDNF-mediated phosphorylation of ERK” and the “increase in the number of GS cells detached from the feeder cells” value (GS cells [5]) was 3 fold.
